{"source": "patent US9630894B2", "about": "“Energy efficient method and apparatus for the extraction of biomolecules from dilute aqueous solution” (DYNASEP INC., priority 2012, dated 2017)", "type_in_all_cases": "physicochemical", "key": {"[1]": {"experiment": "Packed-column extraction of ethanol and ABE solutions with liquid DME, incremental distribution coefficients", "conditions": "for Distribution Coefficient: ABE solution", "experimental": "The tests were carried out in a 50-inch long by 0.68-inch internal diameter (ID) column containing stainless steel distillation packing to increase mass transfer between the liquid DME and the aqueous solution. The flow rate of the liquid DME for all the tests was about […], which calculates to a superficial velocity of the liquid DME of ˜0.3 cm/sec.\nFor each test, about 65 g of a pre-made feed solution was charged to the extraction column, and the column was sealed. DME was introduced into the system and pressure was maintained at 250 psi with the lab pump. Each run was carried out at ambient temperature (about 30° C.), and flow was manually controlled with the pressure-reduction valve.\nAbout ⅓ of the charge was extracted in each test with DME in three fractions, and the raffinate was collected at the end of each test in two fractions. In the event that the concentration of ethanol, or ABE, in the raffinate was not homogeneous along the length of the column, the raffinate was collected in two fractions where RAF#1 was the first (bottom) portion of the raffinate drained and RAF#2 was the remaining (upper) portion.\nAll samples along with controls were sent to R.D. Laboratories (Washington, Mo.) for gas chromatography (GC) analysis.\nThe distribution coefficient (DC) is calculated as the ratio of the concentration of the component in the extract (y) phase to the concentration of the component in the raffinate (x) phase, or DC=Cy/Cx. Using the material balance information in the tables above, and the component analysis supplied by R.D. Labs, the incremental DCs for each fraction were calculated. These DCs are calculated using the conservative assumption that there is no dissolved DME in the liquid phase remaining in the extractor."}, "[2]": {"experiment": "Distribution coefficients of ABE mixtures between DME and aqueous phase in agitated pressure vessel, HPLC", "experimental": "The compositions of the aqueous mixtures were based on concentrations typically produced in a cellulosic fermentation.\nMixtures were charged to a pressure vessel and agitated to provide adequate contacting between the aqueous and solvent (DME) phases. Heat tape was used to control the temperature of the liquid that was measured by thermocouples. Pressure and temperature measurements were taken every five minutes. After temperature and pressure stabilization agitation was ceased and the liquid phases were allowed to fully settle.\nA mass balance was also performed on each component of the ABE and BE mixtures to determine a degree of accuracy of the results."}, "[3]": {"experiment": "CCC extraction with DME of clarified fermentation broth from Clostridium acetobutylicum, GC and DNS assay", "experimental": "This example describes three different runs of the CCC with fermentation broth from Clostridium acetobutylicum. […] The fermentation was intentionally interrupted prior to completion.\nThe extraction column operated at room temperature (˜25° C.) throughout the column. Periodic extract and raffinate samples were taken and analyzed for the constituents in the extract and raffinate discharges.\nThis example describes three different runs. In all cases, the mass of solvent to the mass of feed ratio (S/F) was 0.9. In all example the fermentation broth was first centrifuged to removal all cellular matter. Thus, the feed solution was clarified. In the case of the first run, the following components were measured via gas chromatograph (GC) analysis using external standard calibration. The external standard was run prior to analyzing the samples to provide individual calibration between peak area and the respective constituent under measure. […] Acetate was the conjugate base of acetic acid. Butyrate was the conjugate base of butyric acid. All components were quantified in the extract and raffinate. Since the extract and raffinate are mostly water and DME dissolves in water to approximately 20 wt. %, the samples were allowed to degas over a 24 hour period.\nDuring the run, samples were taken of the extract and raffinate. In the case of the extract, the bulk DME was removed by reduction of pressure and addition of heat to flash the DME from the water and other solution constituents.\nExtract and raffinate samples were collected at periodic intervals during the CCC testing. […] Glucose was measured via a DNS (3,5-dinitrosalicylic acid) assay.\nIn cases where the extract formed a two phase solution, the extract samples were diluted with distilled water to create a single phase and homogenous sample prior to GC. The dilution factor was then used to correct the GC measurements for concentrations prior to dilution."}}, "data": [{"smiles": "CC(C)=O", "note": "[Acetone, acetone]", "values": [{"measurement": "Distribution Coefficient", "setting": "[1]; fraction F1, liquid DME", "result": 0.24}, {"measurement": "Distribution Coefficient", "setting": "[1]; fraction F2, liquid DME", "result": 0.16}, {"measurement": "Distribution Coefficient", "setting": "[1]; fraction F3, liquid DME", "result": 0.04}, {"measurement": "distribution coefficient, previous measurements", "setting": "[1]; previous results, DME/aqueous", "result": 0.25}, {"measurement": "distribution coefficient (slope of line fit)", "setting": "[2]; 38° C.", "result": 1.27}, {"measurement": "DC", "setting": "[2]; test ABE1, […] C., 104 psig", "result": 1.28}, {"measurement": "DC", "setting": "[2]; test ABE2, 38.3 ° C., 102 psig", "result": 1.25}, {"measurement": "DC", "setting": "[2]; test ABE3, 38.3 ° C., 103 psig", "result": 1.23}, {"measurement": "DC", "setting": "[2]; test ABE4, 38.0 ° C., 103 psig", "result": 1.34}, {"measurement": "concentration in sample", "setting": "[3]; Run 3, Extract Bot, time 31 min", "result": 7880, "unit": "µg/mL"}, {"measurement": "concentration in sample", "setting": "[3]; Run 3, Extract Bot, time 37 min", "result": 7900, "unit": "µg/mL"}, {"measurement": "concentration in sample", "setting": "[3]; Run 3, Extract Top, time 31 min", "result": 7030, "unit": "µg/mL"}, {"measurement": "concentration in sample", "setting": "[3]; Run 3, Extract Top, time 37 min", "result": 6440, "unit": "µg/mL"}, {"measurement": "concentration in sample", "setting": "[3]; Run 3, Extract, time 22 min", "result": 2980, "unit": "µg/mL"}, {"measurement": "concentration in sample", "setting": "[3]; Run 3, Extract, time 27 min", "result": 5300, "unit": "µg/mL"}, {"measurement": "concentration in sample", "setting": "[3]; Run 3, Extract, time 43 min", "result": 5140, "unit": "µg/mL"}, {"measurement": "concentration in sample", "setting": "[3]; Run 3, Extract, time 70 min", "result": 4610, "unit": "µg/mL"}, {"measurement": "concentration in sample", "setting": "[3]; Run 3, Extract, time 74 min", "result": 4090, "unit": "µg/mL"}, {"measurement": "concentration in sample", "setting": "[3]; Run 3, Extract, time 78 min", "result": 3830, "unit": "µg/mL"}, {"measurement": "concentration in sample", "setting": "[3]; Run 3, Extract, time 82 min", "result": 4630, "unit": "µg/mL"}, {"measurement": "concentration in sample", "setting": "[3]; Run 3, Feed, time 0 min", "result": 4870, "unit": "µg/mL"}, {"measurement": "concentration in sample", "setting": "[3]; Run 3, Raffinate, time 22 min", "result": 1200, "unit": "µg/mL"}, {"measurement": "concentration in sample", "setting": "[3]; Run 3, Raffinate, time 27 min", "result": 400, "unit": "µg/mL"}, {"measurement": "concentration in sample", "setting": "[3]; Run 3, Raffinate, time 31 min", "result": 310, "unit": "µg/mL"}, {"measurement": "concentration in sample", "setting": "[3]; Run 3, Raffinate, time 37 min", "result": 140, "unit": "µg/mL"}, {"measurement": "concentration in sample", "setting": "[3]; Run 3, Raffinate, time 43 min", "result": 150, "unit": "µg/mL"}, {"measurement": "concentration in sample", "setting": "[3]; Run 3, Raffinate, time 70 min", "result": 110, "unit": "µg/mL"}, {"measurement": "concentration in sample", "setting": "[3]; Run 3, Raffinate, time 74 min", "result": 600, "unit": "µg/mL"}, {"measurement": "concentration in sample", "setting": "[3]; Run 3, Raffinate, time 78 min", "result": 820, "unit": "µg/mL"}, {"measurement": "concentration in sample", "setting": "[3]; Run 3, Raffinate, time 82 min", "result": 460, "unit": "µg/mL"}]}]}
